Patent publication US12569473B2, “Methods to treat respiratory infection utilizing castanospermine analogs” (60 Degrees Pharmaceuticals, Inc., priority 2022, dated 2026)
Counter-ions that a name gives are not always drawn. Like-named read-outs stand apart in the source and are kept apart here.

What was measured:
[1] = Cytotoxicity, neutral red assay, HeLa Ohio cells; assay type: cell-based; settings: human, unit inferred
Method: (§1) The efficacy of celgosivir and castanospermine against RSV and human rhinovirus-14 was assessed in vitro. For RSV studies, embryonic African green monkey kidney cells (MA-104) were grown in minimal essential medium (MEM) supplemented with 0.1% NaHCO3 and 10% fetal bovine serum. When performing antiviral assays, serum was reduced to 2% and […] gentamicin was added to the medium. RSV strain A2 was used for the studies. For rhinovirus studies, the HeLa Ohio cell line was used in place of MA-104 cells.
(§2) CPE inhibition assays with visual quantification of antiviral activity and cytotoxicity were performed as described by Sidwell and Huffman (1971) with slight modifications. Sidwell, R. W. and Huffman, J. H. (1971) Use of disposable micro-tissue culture plates for antiviral and interferon induction studies. Appl. Microbiol. 22, […]. […] All compounds were assayed for virus inhibition in quadruplicate and for cytotoxicity in duplicate. For rhinovirus studies, Pirodavir was applied at a concentration of 0.001-1 μg/ml as the positive control compound. For RSV studies, the positive control compound was Ribavirin applied at a concentration of 0.5-500 μg/ml. For each compound, two wells were set aside as uninfected, untreated cell controls per test and four wells per test received virus only and represented controls for virus replication. […] A selective index (S.I.) was calculated for each compound (SI.=(IC50)/(EC50)).
(§3) Neutral red assay of CPE inhibition and cytotoxicity was performed by a modified method as described by Cavenaugh et al. (1990). […] Briefly, medium was removed from each well of a plate scored for CPE from the visual CPE inhibition assay, 0.2 ml of neutral red (0.034% in PSS) was added to each of the wells of that plate and the plate incubated for 2 h at 37° C. in the dark. […] Absorbances at 540 and 450 nm were read with a microplate reader (Bio-Tek EL 1309; Bio-Tek Instruments). […] Absorbance values were expressed as percentages of untreated controls and EC50 and IC50 values were calculated by regression analysis

[2] = Cytotoxicity, visual examination, MA-104 cells; assay type: cell-based, African green monkey; settings: African green monkey
Method: as §1
(§4) CPE inhibition assays with visual quantification of antiviral activity and cytotoxicity were performed as described by Sidwell and Huffman (1971) with slight modifications. Sidwell, R. W. and Huffman, J. H. (1971) Use of disposable micro-tissue culture plates for antiviral and interferon induction studies. Appl. Microbiol. 22, […]. […] All compounds were assayed for virus inhibition in quadruplicate and for cytotoxicity in duplicate. For rhinovirus studies, Pirodavir was applied at a concentration of 0.001-1 μg/ml as the positive control compound. For RSV studies, the positive control compound was Ribavirin applied at a concentration of 0.5-500 μg/ml. For each compound, two wells were set aside as uninfected, untreated cell controls per test and four wells per test received virus only and represented controls for virus replication. […] For all CPE-based assays, the 50% effective concentration (EC50) was calculated by regression analysis using the means of the CPE ratings at each concentration of compound. Morphological changes due to compound cytotoxicity were graded on a scale of 0-5; grade 5 was defined as 100% cytotoxicity. The 50% cytotoxic dose (IC50) was calculated by regression analysis. A selective index (S.I.) was calculated for each compound (SI.=(IC50)/(EC50)).

[3] = tested on: embryonic African green monkey kidney cells (MA-104); test: Cytotoxicity, visual examination, MA-104 cells; assay type: cell-based
Method: as §1, §4

[4] = mice; 50 mg/kg BID dose; cited from earlier work
[5] = tested on: human rhinovirus-14; test: CPE inhibition assay, visual examination, human rhinovirus-14; assay type: cell-based; settings: for efficacy against human rhinovirus-14: at the concentrations tested (0.3-300 microM); for EC50: visual examination, HeLa Ohio cells, unit inferred
Method: as §1, §4

[6] = Cytotoxicity, neutral red assay, MA-104 cells; assay type: cell-based; settings: African green monkey, MA-104 cells (embryonic African green monkey kidney), unit inferred
Method: as §1, §2, §3

[7] = tested on: RSV strain A2; test: CPE inhibition assay, visual examination, RSV; assay type: cell-based; settings: for EC50: human respiratory syncytial virus, unit inferred
Method: as §1, §4

[8] = Cytotoxicity, visual examination, HeLa Ohio cells; assay type: cell-based; settings: human, unit inferred
Method: as §1, §4

[9] = tested on: human rhinovirus-14; test: Neutral red assay of CPE inhibition, human rhinovirus-14; assay type: cell-based; settings: HeLa Ohio cells, unit inferred
Method: as §1, §2, §3

[10] = cited from earlier work
[11] = tested on: RSV strain A2; test: Neutral red assay of CPE inhibition, RSV; assay type: cell-based; settings: human respiratory syncytial virus, MA104, MA-104 cells, unit inferred
Method: as §1, §2, §3

[12] = tested on: RSV [strain A/A2]; test: Nose and lung viral titers in RSV-infected cotton rats; assay type: in vivo, Cotton rats [Sigmodon hispidus]; settings: Day 5 post infection, celgosivir 25, 50 or 100 mg/kg BID from one day before or after infection, synagis 2.5 mg/kg i.m. once per day, vs vehicle
Method: (§5) Cotton rats [Sigmodon hispidus, 2 male & 3 female, 6-8 weeks old] provided with standard rodent chow and water ad lib, were infected intranasally with RSV [strain A/A2, 10^5 pfu] on Day 0. Animals received celgosivir [25, 50 or 100 mg/kg BID for total daily doses of 50, 100 or 200 mg/kg] daily beginning one day before or after infection and were sacrificed on Day 5-post-infection for histopathology, qPCR, and viral load assessment. Control groups included a [i] positive control Synagis [2.5 mg/kg, i.m, once per day from the first day post-infection], [ii] vehicle control in which vehicle was administered twice per day beginning one day prior to RSV infection, [iii] a vehicle control group that were mock-infected with PBS for which treatment was initiated beginning one day prior to infection, and [iv] an untreated group mock infected with PBS that received no treatment. Animals were weighed on Day −1 and Day 5, and plasma was obtained by retro-orbital bleed on the same days.
(§6) The RSV strain for inoculation [A/A2 (RSV A/A2) (ATCC, Manassas, VA)] was propagated in HEp-2 cells after serial plaque-purification to reduce defective-interfering particles. A pool of virus designated containing approximately 3.0×10^8 pfu/mL in sucrose stabilizing media was used in the experiment. This stock of virus was stored at −80° C. and was previously characterized in vivo in the cotton rat model and validated for upper and lower respiratory tract replication.
Viral Titers: Nose and lung homogenates were centrifuged and diluted in EMEM. Confluent HEp-2 monolayers were infected in duplicate with diluted homogenates in 24-well plates. Following one hour incubation at 37° C. […] Plaques were counted and virus titer determined as geometric mean plaque-forming units per gram of tissue±standard error for all animals in a group at a given time.
Statistics: Group means for each parameter were evaluated by one-way ANOVA, then individual group means were compared [t-test, with multiple comparison correction] to the RSV-infected, vehicle-treated control group. […]

[13] = Pharmacokinetic simulations using CELADEN study parameters; set-up: species or system human; settings: linear extrapolation
Method: It is known that a steady state minimum castanospermine concentration of 400 nanograms/ml is associated with a 50 mg/kg BID dose in mice and that the antiviral effect of celgosivir in vivo seems to be correlated with the minimum steady state concentration of castanospermine (Watanabe et al). […] International Publication No. WO 2014/143907 discloses pharmacokinetic parameters for castanospermine for the CELADEN study. […] Extrapolating linearly, therefore, the minimum protective dose (achieving 400 nanograms/ml steady state minimum) is approximately 40 mg every 6 h, 75 mg every 8 h and 225 mg every 12 h. Further, WO 2014/143907 discloses that the CELADEN study regimen produce a steady state maximum castanospermine concentration of 5100 nanograms/ml. […] The FDA has published generic scaling factors to adjust mg/kg dosing in animals to mg/kg dosing in humans. Generically for mice, that scaling factor is 12. Therefore, 50 mg/kg BID is equivalent to a dose of 4.2 mg/kg BID in humans, which for a 60 kg human is equivalent to 250 mg. The same dose administered three or four times daily is equivalent to 167 mg and 125 mg and 2.8 and 2.1 mg/kg respectively. In a 60 kg human, the maximum single dose is 6.7 mg/kg, and the maximum daily dose is 10 mg/kg.

[14] = literature (Sorbera et al); cited from earlier work
[15] = tested on: RSV [strain A/A2]; test: Pulmonary histopathology in RSV-infected cotton rats; assay type: in vivo, Cotton rats [Sigmodon hispidus]; settings: for lung histopathology scores (RSV-induced inflammation): Day 5 post infection, celgosivir 25, 50 or 100 mg/kg BID from one day before or after infection, synagis 2.5 mg/kg i.m. once per day, vs vehicle
Method: as §5, §6
Pulmonary Histopathology: Lungs were removed and inflated with 10% neutral buffered formalin to their normal volume, then fixed [using the same solution]. After fixation, lungs were embedded in paraffin, sectioned, and stained with H&E. Four parameters of pulmonary inflammation were evaluated: peribronchiolitis (inflammatory cell infiltration around the bronchioles), perivasculitis (inflammatory cell infiltration around the small blood vessels), interstitial pneumonia (inflammatory cell infiltration and thickening of alveolar walls), and alveolitis (cells within the alveolar spaces). Slides were blindly scored on a 0-4 severity scale. The scores are subsequently converted to a 0-100% normalized scale.
Statistics: Group means for each parameter were evaluated by one-way ANOVA, then individual group means were compared [t-test, with multiple comparison correction] to the RSV-infected, vehicle-treated control group. P<0.05 was considered statistically significant.

[16] = compounds tested at 0.3, 3, 30 and 300 microM
[17] = MA104, visual examination, MA-104 cells, compounds tested at 0.3, 3, 30 and 300 microM
[18] = in theory, CELADEN study, confirming literature
[19] = positive control applied at 0.001-1 μg/ml
[20] = positive control applied at 0.5-500 μg/ml

Molecule: O[C@H]1[C@H](O)[C@@H](O)CN2CC[C@H](O)[C@H]12 [Castanospermine]
- CC50 at 6 days [1, 16]: > 300 µM
- CC50 at 6 days ([2]; CC50): > 300 µM
- safety in vitro (CC50 above the highest concentration tested) [3]: safe at all concentrations tested
- steady state minimum castanospermine concentration [4]: 400 nanograms/ml
- efficacy against human rhinovirus-14 [5]: Neither celgosivir nor castanospermine were determined to be efficacious
- EC50 [5, 16]: > 300 µM
- CC50 at 6 days [6, 16]: > 300 µM
- EC50 [7, 17]: > 300 µM
- CC50 at 6 days [8, 16]: > 300 µM
- EC50 [9, 16]: > 300 µM
- steady state maximum castanospermine concentration ([10]; CELADEN study regimen): 5100 nanograms/ml
- EC50 [11, 16]: > 300 µM

Molecule: CCCC(=O)O[C@H]1CN2CC[C@H](O)[C@@H]2[C@@H](O)[C@@H]1O [Celgosivir HCL]
- CC50 at 6 days [1, 16]: > 300 µM
- CC50 at 6 days ([2]; MA-104 cells (embryonic African green monkey kidney), RSV studies, text summary over visual and neutral red assays, unit inferred, read-out: CC50): ≥ 300 µM
- CC50 at 6 days ([2]; MA-104 cells (embryonic African green monkey kidney), visual examination, MA-104 cells, compounds tested at 0.3, 3, 30 and 300 microM, unit inferred, read-out: CC50): > 300 µM
- safety in vitro (CC50 above the highest concentration tested) ([3]; all concentrations tested (0.3-300 microM), text summary of the cytotoxicity assays): safe at all concentrations tested
- efficacy against human rhinovirus-14 [5]: Neither celgosivir nor castanospermine were determined to be efficacious
- EC50 [5, 16]: > 300 µM
- CC50 at 6 days [6, 16]: > 300 µM
- EC50 [7, 17]: 37 µM
- EC50 ([7]; against RSV, text summary over visual and neutral red assays): 34 to 37 µM
- efficacy against RSV infection ([7]; in vitro): efficacious
- CC50 at 6 days [8, 16]: > 300 µM
- EC50 [9, 16]: > 300 µM
- nasal and lung viral titer ([12]; listed as Celgosivir): no effect on viral titer in either the nose or the lung
- nasal and lung viral titer ([12]; listed as celgosivir): did not
- minimum protective dose (achieving 400 nanograms/ml steady state minimum) ([13]; every 6 h): approximately 40 mg
- minimum protective dose (achieving 400 nanograms/ml steady state minimum) ([13]; every 8 h): ~75 mg
- minimum protective dose (achieving 400 nanograms/ml steady state minimum) ([13]; every 12 h): ~225 mg
- pharmacokinetics, dose linearity [14]: linear with dose over the tolerated dose range
- adverse event profile ([10]; CELADEN study regimen): higher incidence of GI effects, but not increased severity
- maximum daily dose as a total dose [10, 18]: ≤ 600 mg
- maximum dose as a single dose [10, 18]: ≤ 400 mg
- EC50 [11, 16]: 34 µM
- lung histopathology scores (RSV-induced inflammation) ([15]; listed as Celgosivir): reduced inflammation at all doses on three of four histopathology parameters
- lung histopathology scores (RSV-induced inflammation) ([15]; listed as celgosivir): reduced for at least one domain for all doses
- impact of timing of administration on degree of protection against inflammation ([15]; dosing begun one day prior to vs one day after infection (FIG. 1)): minimal impact

Molecule: CCOC(=O)c1ccc(OCCC2CCN(c3ccc(C)nn3)CC2)cc1 [Pirodavir, reference compound]
- CC50 at 6 days [1, 19]: > 1 µg/mL
- EC50 [5, 19]: 0.032 µg/mL
- CC50 at 6 days [8, 19]: > 1 µg/mL
- EC50 [9, 19]: 0.031 µg/mL

Molecule: NC(=O)c1ncn([C@@H]2O[C@H](CO)[C@@H](O)[C@H]2O)n1 [Ribavirin, reference compound]
- CC50 at 6 days ([2]; MA-104 cells (embryonic African green monkey kidney), visual examination, MA-104 cells, positive control applied at 0.5-500 μg/ml, unit inferred, read-out: CC50): 340 µg/mL
- CC50 at 6 days [6, 20]: 62 µg/mL
- EC50 ([7]; MA104, visual examination, MA-104 cells, positive control applied at 0.5-500 μg/ml): 4 µg/mL
- EC50 [11, 20]: 2.8 µg/mL

Molecule: Synagis: positive control in cotton rat RSV study, 2.5 mg/kg i.m. once per day
- nasal and lung viral titer [12]: decrease viral titer
- lung histopathology scores (RSV-induced inflammation) [15]: statistically significant reductions across all four histopathology domains
